Measurements reported in patent EP1598069A2, “Pharmaceutical combination of ethinylestradiol and drospirenone for use as a contraceptive” (Schering Aktiengesellschaft, priority 1999, dated 2001).

Columns and labels:
[1] = Chemical stability under acid and alkaline conditions (statement); assay type: physicochemical
[2] = Solubility in water and aqueous buffers (statement); assay type: physicochemical; settings: drospirenone: in water and aqueous buffers at various pH values
[3] = Absolute bioavailability of drospirenone after oral administration; assay type: in vivo, women
[4] = human, in vivo, po
Procedure: 42 healthy women between 18 and 35 years of age were included in an open-label crossover study after their informed consent had been obtained. The aim of the study was to investigate the relative bioavailability of drospirenone and ethinylestradiol from a tablet formulation containing 3 mg drospirenone and 0.03 mg ethinylestradiol with reference to an oral suspension containing 6 mg of drospirenone and 0.06 mg ethinylestradiol per vial.
The bioavailability was determined using serum concentrations of each active agent as parameters.

Compound | stability under acid conditions ([1]; acid conditions) | stability under alkaline conditions ([1]; alkaline conditions) | solubility [2] | bioavailability ([3]; human, in vivo, oral administration of a microcrystalline suspension containing 3.13 mg drospirenone to 6 postmenopausal women) [%] | absolute bioavailability ([3]; oral administration of 2 mg drospirenone to 8 young healthy women) | relative bioavailability [4] [%]
C[C@]12CCC(=O)C=C1[C@@H]1C[C@@H]1[C@H]1[C@@H]3[C@@H]4C[C@@H]4[C@@]4(CCC(=O)O4)[C@@]3(C)CC[C@@H]12 [drospirenone, 6β,7β;15β,16β-dimethylene-3-oxo-17α-pregn-4-ene-21,17-carbolactone] | rearranged to an inactive isomer | hydrolysed | sparingly soluble | 85 | 76%±13% | 107
C#C[C@]1(O)CC[C@H]2[C@@H]3CCc4cc(O)ccc4[C@H]3CC[C@@]21C [ethinylestradiol, 17α-ethinylestradiol] | – | – | sparingly soluble | – | – | 117
